From BindingDB's records for doi:10.1016/S0960-894X(01)80746-0 (1993)

Assay: Tested for inhibitory activity of compound against Phospholipase A2 (PLA2)

Row | IC50 [µM] | SMILES
1 | 31 | CCCCCCCCCCCC(=O)N1C(=O)OC[C@@H]1COP(=O)([O-])OCC[N+](C)(C)C [{2-[((R)-3-Dodecanoyl-2-oxo-oxazolidin-4-ylmethoxy)-hydroxy-phosphoryloxy]-ethyl}-trimethyl-ammonium]
2 | 5.3 | CCCCCCCCCCCC(=O)N[C@H](CCCC)COP(=O)([O-])OCC[N+](C)(C)C [(2-{[2-((S)-Dodecanoylamino)-hexyloxy]-hydroxy-phosphoryloxy}-ethyl)-trimethyl-ammonium]
